Measurements reported in publication PMC6222646, “HIV-1 Integrase-Targeted Short Peptides Derived from a Viral Protein R Sequence” (Molecules : A Journal of Synthetic Chemistry and Natural …, 2018).
Several values for one entry are separate records, joined by “and”; a condition that tells them apart may be missing. Identical values can stand only once. Where a SMILES comes first, the peptide text is derived from it. [ ]: non-standard residue; d: D form. Bpa = N[C@@H](Cc1ccc(C(=O)c2ccccc2)cc1)C(=O)O

Columns and labels:
HIV-1 integrase (IN) [1] = target: T1, HIV-1 integrase (IN) (Human immunodeficiency virus type 1 group M subtype B, UniProt P12497); assay: In vitro integrase catalytic assay, 3'-processing (3'-P); type: biochemical; details: 400 nM IN, 20 nM 32P-labeled 21T/21B DNA, 37 °C, 2 h
Experimental: (§1) IN reactions were performed as previously described. […] Reactions were performed at 37 °C (2 h) and quenched by the addition of an equal volume of loading buffer (formamide containing 1% sodium dodecyl sulfate, 0.25% bromophenol blue, and xylene cyanol). Reaction products were separated in 16% polyacrylamide denaturing sequencing gels. Dried gels were visualized using a Typhoon 8600 instrument (GE Healthcare, Chicago, IL, USA). Densitometric analyses were performed using ImageQuant 5.1 software (GE Healthcare, Chicago, IL, USA). Data analyses (linear regression, 50% inhibitory concentration [IC50] determination, standard deviation [SD]) were performed from at least 3 independent determinations using Prism 5.0c software from GraphPad (La Jolla, CA, USA). To assay 3′-P inhibitory potency, reactions were carried out with [γ-^32P]-labeled full-length oligonucleotide 21T ([…]) annealed to the complementary oligonucleotide 21B ([…]). Formation of the shorter processed 19T products was monitored and quantified to assess enzyme performance and inhibitor potency. The ST reactions were carried out with the [γ-^32P]-labeled pre-cleaved oligonucleotide 19T ([…]) annealed to the complementary oligonucleotide 21B ([…]) and formation of integration products (longer and slower migrating than the starting 19T substrate) was monitored to assess enzyme performance and inhibitor potency.

HIV-1 integrase (IN) [2] = target: T1, HIV-1 integrase (IN); assay: In vitro integrase catalytic assay, strand transfer (ST); type: biochemical; details: 400 nM IN, 20 nM 32P-labeled pre-cleaved 19T/21B DNA, 37 °C, 2 h
Experimental: as §1

Row | Structure (SMILES) | IC50 (HIV-1 integrase (IN) [1]) [µM] | IC50 (HIV-1 integrase (IN) [2])
1 | CC[C@H](C)[C@H](NC(=O)[C@H](CCCNC(=N)N)NC(=O)[C@H](C)NC(=O)[C@H](Cc1c[nH]cn1)NC(=O)[C@@H](NC(=O)[C@@H](N)Cc1ccccc1)[C@@H](C)CC)C(=O)NCC(=O)O [Peptide 5a, FIHARIG] (H-FIHARIG-OH) | > 111 | 46.6 ± 6.5 µM
2 | CC[C@H](C)[C@H](NC(=O)[C@H](C)NC(C)=O)C(=O)N[C@@H](Cc1c[nH]cn1)C(=O)N[C@@H](Cc1ccccc1)C(=O)N[C@@H](CCCNC(=N)N)C(=O)N[C@H](C(=O)NCC(N)=O)[C@@H](C)CC [Peptide 8c, Ac-AIHFRIG-amide] (Ac-AIHFRIG-NH2) | > 333 | 46 ± 8 µM
3 | CC[C@H](C)[C@H](NC(=O)[C@H](CCCNC(=N)N)NC(=O)[C@H](Cc1ccccc1)NC(=O)[C@H](C)NC(=O)[C@@H](NC(=O)[C@@H](N)Cc1ccccc1)[C@@H](C)CC)C(=O)NCC(=O)O [Peptide 6a, FIAFRIG] (H-FIAFRIG-OH) | 17.4 ± 2 | 6.7 ± 1 µM
4 | CC[C@H](C)[C@H](NC(=O)[C@H](CCCNC(=N)N)NC(=O)[C@H](Cc1ccccc1)NC(=O)[C@H](Cc1c[nH]cn1)NC(=O)[C@H](C)NC(=O)[C@H](Cc1ccccc1)NC(C)=O)C(=O)NCC(N)=O [Peptide 7c, Ac-FAHFRIG-amide] (Ac-FAHFRIG-NH2) | > 333 | 127 ± 14 µM
5 | CC[C@H](C)[C@H](NC(=O)[C@H](CCCNC(=N)N)NC(=O)[C@H](C)NC(=O)[C@H](Cc1c[nH]cn1)NC(=O)[C@@H](NC(=O)[C@H](Cc1ccccc1)NC(C)=O)[C@@H](C)CC)C(=O)NCC(N)=O [Peptide 5c, Ac-FIHARIG-amide] (Ac-FIHARIG-NH2) | > 333 | 117 ± 10 µM
6 | CC[C@H](C)[C@H](NC(=O)[C@H](CCCNC(=N)N)NC(=O)[C@H](Cc1ccc(C(=O)c2ccccc2)cc1)NC(=O)[C@H](Cc1c[nH]cn1)NC(=O)[C@@H](NC(=O)[C@@H](N)Cc1ccccc1)[C@@H](C)CC)C(=O)NCC(=O)O [Peptide 11a, FIHBRIG] (H-FIH[Bpa]RIG-OH) | 34 ± 6 | 4.2 ± 0.7 µM
7 | CC[C@H](C)[C@H](NC(=O)[C@@H](N)Cc1ccccc1)C(=O)N[C@@H](Cc1c[nH]cn1)C(=O)N[C@@H](Cc1ccccc1)C(=O)N[C@@H](CCCNC(=N)N)C(=O)N[C@@H](C)C(=O)NCC(N)=O [Peptide 3b, FIHFRAG-amide] (H-FIHFRAG-NH2) | > 111 | > 111 µM
8 | CC[C@H](C)[C@H](NC(=O)[C@H](CCCNC(=N)N)NC(=O)[C@H](Cc1ccccc1)NC(=O)[C@H](Cc1ccc(C(=O)c2ccccc2)cc1)NC(=O)[C@@H](NC(=O)[C@@H](N)Cc1ccccc1)[C@@H](C)CC)C(=O)NCC(=O)O [Peptide 12a, FIBFRIG] (H-FI[Bpa]FRIG-OH) | 6.5 ± 0.9 | 2.2 ± 0.6 µM
9 | CC[C@H](C)[C@H](NC(=O)[C@H](C)NC(=O)[C@H](Cc1ccccc1)NC(=O)[C@H](Cc1c[nH]cn1)NC(=O)[C@@H](NC(=O)[C@H](Cc1ccccc1)NC(C)=O)[C@@H](C)CC)C(=O)NCC(N)=O [Peptide 4c, Ac-FIHFAIG-amide] (Ac-FIHFAIG-NH2) | > 333 | 81 ± 9 µM
10 | CC[C@H](C)[C@H](NC(=O)[C@H](CCCNC(=N)N)NC(=O)[C@H](Cc1ccccc1)NC(=O)[C@H](C)NC(=O)[C@@H](NC(=O)[C@@H](N)Cc1ccccc1)[C@@H](C)CC)C(=O)NCC(N)=O [Peptide 6b, FIAFRIG-amide] (H-FIAFRIG-NH2) | 95.4 ± 5 | 35 ± 3.2 µM
11 | CC[C@H](C)[C@H](NC(=O)[C@H](CCCNC(=N)N)NC(=O)[C@H](C)NC(=O)[C@H](Cc1c[nH]cn1)NC(=O)[C@@H](NC(=O)[C@@H](N)Cc1ccccc1)[C@@H](C)CC)C(=O)NCC(N)=O [Peptide 5b, FIHARIG-amide] (H-FIHARIG-NH2) | > 111 | > 111 µM
12 | CC[C@H](C)[C@H](NC(=O)[C@H](Cc1ccc(C(=O)c2ccccc2)cc1)NC(=O)[C@H](Cc1ccccc1)NC(=O)[C@H](Cc1c[nH]cn1)NC(=O)[C@@H](NC(=O)[C@@H](N)Cc1ccccc1)[C@@H](C)CC)C(=O)NCC(=O)O [Peptide 10a, FIHFBIG] (H-FIHF[Bpa]IG-OH) | > 333 | ~50 µM and 48 µM
13 | CC[C@H](C)[C@H](NC(=O)[C@H](Cc1ccccc1)NC(C)=O)C(=O)N[C@@H](Cc1c[nH]cn1)C(=O)N[C@@H](Cc1ccccc1)C(=O)N[C@@H](CCCNC(=N)N)C(=O)N[C@@H](C)C(=O)NCC(N)=O [Peptide 3c, Ac-FIHFRAG-amide] (Ac-FIHFRAG-NH2) | 208 ± 12 | 28 ± 4 µM
14 | CC[C@H](C)[C@H](NC(=O)[C@H](C)NC(=O)[C@H](Cc1ccccc1)NC(=O)[C@H](Cc1c[nH]cn1)NC(=O)[C@@H](NC(=O)[C@@H](N)Cc1ccccc1)[C@@H](C)CC)C(=O)NCC(N)=O [Peptide 4b, FIHFAIG-amide] (H-FIHFAIG-NH2) | > 111 | > 111 µM
